Test results: publication PMC12217463, “Functional and structural analyses of amino acid sequence variation in PDC β-lactamase reveal different mechanistic pathways toward cefiderocol resistance in Pseudomonas aeruginosa” (Antimicrobial Agents and Chemotherapy, 2025)
Converted amounts (≈) assume the structure as drawn.

Key:
PDC E219K = PDC E219K (Pseudomonas aeruginosa, UniProt P24735, E247K); assay: Steady-state kinetics of purified β-lactamase; conditions: for kcat: direct hydrolysis at substrate concentration at least three times the Km; for Ratio for PDC E219K/PDC-1: ratio of kcat/Km (fold change in catalytic efficiency)
PDC L293P = PDC L293P (Pseudomonas aeruginosa, UniProt P24735, L320P); assay: Steady-state kinetics of purified β-lactamase; conditions: for kcat: direct hydrolysis at substrate concentration at least three times the Km
[1] = system: PAO ΔpiuC producing PDC E219D; assay: Cefiderocol MIC, iron uptake-deficient host; type: cell-based; conditions: Pseudomonas aeruginosa
From the text: (§1) We took advantage of a previously constructed and characterized laboratory collection of recombinant P. aeruginosa PAO1 isolates expressing different blaPDC variants, but specifically enriched for this work with additional variants, following the previously described methodology ([17]). […] The final collection comprised 40 recombinant isolates (20 in PAO1 and 20 in PAO ΔpiuC) producing the wild-type PDC-1 variant from PAO1 and 19 derivatives carrying specific amino acid substitutions previously associated with the development of resistance to ceftazidime/avibactam, ceftolozane/tazobactam, or cefiderocol: T70I, F121L, P153L, G156D, A200T, G202S, ΔG202-E219, G214R, P215L, P215S, ΔP215-G222, D217N, E219K, E219G, E219D, S226ins, L293P, F121L + E219K, and F121L + G222S.
(§2) The MICs of ceftazidime, ceftazidime/avibactam, ceftolozane/tazobactam, cefepime, and cefiderocol were determined in triplicate, for all isolates, by reference broth microdilution assays. Avibactam and tazobactam were fixed at 4 mg/L. All assays were performed using cation-adjusted Mueller-Hinton broth (CAMHB), except for cefiderocol, which was determined in all cases using iron-depleted CAMHB, prepared according to CLSI M100 guidelines ([40]). EUCAST v.15.0 clinical breakpoints and guidelines (http://www.eucast.org/clinical_breakpoints/) were used for reference purposes. Reference strains Escherichia coli ATCC 25922, Klebsiella pneumoniae ATCC 700603, and P. aeruginosa ATCC 27853 were used as controls.

[2] = system: PAO ΔpiuC producing PDC L293P; assay: Cefiderocol MIC, iron uptake-deficient host; type: cell-based; conditions: Pseudomonas aeruginosa
From the text: as §1, §2

[3] = system: PAO ΔpiuC producing PDC P215S; assay: Cefiderocol MIC, iron uptake-deficient host; type: cell-based; conditions: Pseudomonas aeruginosa
From the text: as §1, §2

[4] = system: PAO ΔpiuC producing PDC G156D; assay: Cefiderocol MIC, iron uptake-deficient host; type: cell-based; conditions: Pseudomonas aeruginosa
From the text: as §1, §2

[5] = system: PAO ΔpiuC producing PDC G214R; assay: Cefiderocol MIC, iron uptake-deficient host; type: cell-based; conditions: Pseudomonas aeruginosa
From the text: as §1, §2

[6] = system: PAO ΔpiuC producing PDC A200T; assay: Cefiderocol MIC, iron uptake-deficient host; type: cell-based; conditions: Pseudomonas aeruginosa
From the text: as §1, §2

[7] = system: PAO ΔpiuC producing PDC ∆G202-E219; assay: Cefiderocol MIC, iron uptake-deficient host; type: cell-based; conditions: Pseudomonas aeruginosa
From the text: as §1, §2

[8] = system: PAO ΔpiuC producing PDC P215L; assay: Cefiderocol MIC, iron uptake-deficient host; type: cell-based; conditions: Pseudomonas aeruginosa
From the text: as §1, §2

[9] = system: PAO ΔpiuC producing PDC-1 (WT); assay: Cefiderocol MIC, iron uptake-deficient host; type: cell-based; conditions: Pseudomonas aeruginosa
From the text: as §1, §2

[10] = system: PAO ΔpiuC producing PDC F121L + G220S; assay: Cefiderocol MIC, iron uptake-deficient host; type: cell-based; conditions: Pseudomonas aeruginosa
From the text: as §1, §2

[11] = system: PAO ΔpiuC producing PDC E219G; assay: Cefiderocol MIC, iron uptake-deficient host; type: cell-based; conditions: Pseudomonas aeruginosa
From the text: as §1, §2

[12] = system: PAO ΔpiuC producing PDC F121L; assay: Cefiderocol MIC, iron uptake-deficient host; type: cell-based; conditions: Pseudomonas aeruginosa
From the text: as §1, §2

[13] = system: PAO ΔpiuC producing PDC F121L + E219K; assay: Cefiderocol MIC, iron uptake-deficient host; type: cell-based; conditions: Pseudomonas aeruginosa
From the text: as §1, §2

[14] = system: PAO ΔpiuC producing PDC P153L; assay: Cefiderocol MIC, iron uptake-deficient host; type: cell-based; conditions: Pseudomonas aeruginosa
From the text: as §1, §2

[15] = system: PAO ΔpiuC producing PDC S226ins; assay: Cefiderocol MIC, iron uptake-deficient host; type: cell-based; conditions: Pseudomonas aeruginosa
From the text: as §1, §2

PAO ΔpiuC = assay: Cefiderocol MIC, iron uptake-deficient host; type: cell-based; conditions: Pseudomonas aeruginosa
From the text: as §1, §2

[16] = system: PAO ΔpiuC producing PDC ∆P215-G222; assay: Cefiderocol MIC, iron uptake-deficient host; type: cell-based; conditions: Pseudomonas aeruginosa
From the text: as §1, §2

[17] = system: PAO ΔpiuC producing PDC E219K; assay: Cefiderocol MIC, iron uptake-deficient host; type: cell-based; conditions: Pseudomonas aeruginosa
From the text: as §1, §2

[18] = system: PAO ΔpiuC producing PDC D217N; assay: Cefiderocol MIC, iron uptake-deficient host; type: cell-based; conditions: Pseudomonas aeruginosa
From the text: as §1, §2

[19] = system: PAO ΔpiuC producing PDC T70I; assay: Cefiderocol MIC, iron uptake-deficient host; type: cell-based; conditions: Pseudomonas aeruginosa
From the text: as §1, §2

[20] = system: PAO ΔpiuC producing PDC G202S; assay: Cefiderocol MIC, iron uptake-deficient host; type: cell-based; conditions: Pseudomonas aeruginosa
From the text: as §1, §2

PAO1 + blaPDC L293P = assay: MIC, broth microdilution; type: cell-based; conditions: Pseudomonas aeruginosa
From the text: as §1, §2

PAO1 + blaPDC F121L = assay: MIC, broth microdilution; type: cell-based; conditions: Pseudomonas aeruginosa
From the text: as §1, §2

PAO1 + blaPDC T70I = assay: MIC, broth microdilution; type: cell-based; conditions: Pseudomonas aeruginosa
From the text: as §1, §2

PAO1 = assay: MIC, broth microdilution; type: cell-based; conditions: Pseudomonas aeruginosa; PAO1 wild type, no plasmid-borne PDC; avibactam and tazobactam fixed at 4 mg/L; FDC in iron-depleted CAMHB
From the text: as §1, §2

PAO1 + blaPDC A200T = assay: MIC, broth microdilution; type: cell-based; conditions: Pseudomonas aeruginosa
From the text: as §1, §2

PAO1 + blaPDC E219D = assay: MIC, broth microdilution; type: cell-based; conditions: Pseudomonas aeruginosa
From the text: as §1, §2

PAO1 + blaPDC D217N = assay: MIC, broth microdilution; type: cell-based; conditions: Pseudomonas aeruginosa
From the text: as §1, §2

PDC-1 (WT) = PDC-1 (WT) (Pseudomonas aeruginosa, UniProt P24735); assay: Steady-state kinetics of purified β-lactamase
[21] = system: E. cloacae AmpC variant with a ∆A294-P295 deletion; design: method as in PMID 32284381; conditions: relative to the parent enzyme; cited from earlier work

SMILES: CC(C)(O/N=C(\C(=O)N[C@@H]1C(=O)N2C(C(=O)[O-])=C(C[N+]3(CCNC(=O)c4ccc(O)c(O)c4Cl)CCCC3)CS[C@H]12)c1csc(N)n1)C(=O)O [FDC, cefiderocol]
- increase in kcat values (PDC E219K; PDC E219K relative to PDC-1): ≈ 125 fold
- Km (PDC E219K; PDC E219K, antibiotics: determined as Ki app with nitrocefin as reporter substrate, 10 mM PBS, pH 7.4, room temperature): 466 ± 120 µM
- kcat (PDC E219K; PDC E219K, 10 mM PBS, pH 7.4, room temperature, listed as Cefiderocol): 0.45 ± 0.03 s⁻¹
- kcat (PDC E219K; PDC E219K, 10 mM PBS, pH 7.4, room temperature, listed as cefiderocol): 0.45 s⁻¹
- Ratio for PDC E219K/PDC-1 (PDC E219K; listed as Cefiderocol): 24.00
- Ratio for PDC E219K/PDC-1 (PDC E219K; listed as cefiderocol): ≈ 24
- improvement in substrate binding affinity (Km decrease) (PDC L293P; PDC L293P relative to PDC-1): ≈ 32 fold
- Km (PDC L293P; PDC L293P, antibiotics: determined as Ki app with nitrocefin as reporter substrate, 10 mM PBS, pH 7.4, room temperature): 2690 ± 100 nM
- kcat (PDC L293P; PDC L293P, 10 mM PBS, pH 7.4, room temperature, listed as Cefiderocol): 0.0036 ± 0.0001 s⁻¹
- kcat (PDC L293P; PDC L293P, 10 mM PBS, pH 7.4, room temperature, listed as cefiderocol): 0.0036 s⁻¹
- Ratio for PDC L293P/PDC-1 (PDC L293P; ratio of kcat/Km (fold change in catalytic efficiency)): 33.75
- MIC [1]: 8 µg/mL (≈ 10.6 µM)
- MIC [2]: 32 µg/mL (≈ 42.5 µM)
- MIC [3]: 8 µg/mL (≈ 10.6 µM)
- MIC [4]: 8 µg/mL (≈ 10.6 µM)
- MIC [5]: 16 µg/mL (≈ 21.3 µM)
- MIC [6]: 8 µg/mL (≈ 10.6 µM)
- MIC [7]: 8 µg/mL (≈ 10.6 µM)
- MIC [8]: 8 µg/mL (≈ 10.6 µM)
- MIC [9]: 4 µg/mL (≈ 5.32 µM)
- MIC [10]: 8 µg/mL (≈ 10.6 µM)
- MIC [11]: 8 µg/mL (≈ 10.6 µM)
- MIC [12]: 8 µg/mL (≈ 10.6 µM)
- MIC [13]: 64 µg/mL (≈ 85.1 µM)
- MIC [14]: 8 µg/mL (≈ 10.6 µM)
- MIC [15]: 8 µg/mL (≈ 10.6 µM)
- MIC (PAO ΔpiuC): 2 µg/mL (≈ 2.66 µM)
- MIC [16]: 32 µg/mL (≈ 42.5 µM)
- MIC [17]: 32 µg/mL (≈ 42.5 µM)
- MIC [18]: 8 µg/mL (≈ 10.6 µM)
- MIC [19]: 8 µg/mL (≈ 10.6 µM)
- MIC [20]: 8 µg/mL (≈ 10.6 µM)
- MIC (PAO1 + blaPDC L293P): 4 µg/mL (≈ 5.32 µM)
- MIC (PAO1 + blaPDC F121L): 0.5 µg/mL (≈ 0.665 µM)
- MIC (PAO1 + blaPDC T70I): 0.5 µg/mL (≈ 0.665 µM)
- MIC (PAO1): 0.125 µg/mL
- MIC (PAO1 + blaPDC A200T): 0.5 µg/mL (≈ 0.665 µM)
- MIC (PAO1 + blaPDC E219D): 0.5 µg/mL (≈ 0.665 µM)
- MIC (PAO1 + blaPDC D217N): 0.5 µg/mL (≈ 0.665 µM)
- kcat (PDC-1 (WT); PDC-1 (WT), direct hydrolysis at substrate concentration at least three times the Km, 10 mM PBS, pH 7.4, room temperature): 0.0036 s⁻¹
- Ratio (PDC-1 (WT); kcat/Km relative to PDC-1 (reference = 1)): 1
- increase in catalytic efficiency [21]: ≈ 19 fold
